The values below come from PubChem BioAssay AID1159558 (GlaxoSmithKline (GSK), 2015).

Active and inactive are the calls of the source.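 How the source made its calls: active means IC50 against T. cruzi CYP51 below a set limit; inactive means the rest.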

For the assay, the target named is Sterol 14-alpha demethylase (Trypanosoma cruzi (strain CL Brener)) (UniProt Q7Z1V1). Nature of the assay: T. cruzi sterol 14-alpha demethylase inhibition – biochemical, recombinant enzyme, mechanism study for T. cruzi antiparasitic project, dose response (AID 1159558).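 Further: enzyme in bacterial membranes with Anopheles gambiae CYP reductase and cytochrome b5 partners.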 As to conditions: recombinant T. cruzi CYP51, BOMCC fluorescence.
Chain of Sterol 14-alpha demethylase (Trypanosoma cruzi (strain CL Brener)) (Q7Z1V1 whole entry, looked up): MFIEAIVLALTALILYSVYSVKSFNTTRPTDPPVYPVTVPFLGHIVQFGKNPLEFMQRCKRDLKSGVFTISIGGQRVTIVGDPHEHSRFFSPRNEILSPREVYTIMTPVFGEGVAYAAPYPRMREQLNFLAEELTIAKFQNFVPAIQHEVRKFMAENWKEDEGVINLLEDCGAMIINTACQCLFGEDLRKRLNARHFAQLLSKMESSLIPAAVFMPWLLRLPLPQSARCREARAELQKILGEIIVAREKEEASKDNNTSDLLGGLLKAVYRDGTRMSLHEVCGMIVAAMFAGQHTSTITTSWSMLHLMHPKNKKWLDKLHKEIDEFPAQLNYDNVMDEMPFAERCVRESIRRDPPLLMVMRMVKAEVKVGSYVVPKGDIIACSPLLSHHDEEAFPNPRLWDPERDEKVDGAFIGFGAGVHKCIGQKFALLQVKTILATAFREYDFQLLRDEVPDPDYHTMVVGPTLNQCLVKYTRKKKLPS
As a reminder, the IC50 is the concentration needed to halve the response being measured. Take `Cc1[nH]n2c(=O)c3c(nc2c1-c1ccc(Br)cc1)CCCC3`: the IC50 is > 100 µM (inactive). As for `Cc1nc2c(-c3nc(-c4ccc(N)cc4)n[nH]3)cccn2c1C`, the figure is > 100 µM (inactive).

On to `CC(C)(C)C(O)(CCc1ccc(Cl)cc1)Cn1cncn1` (stereo not given), for which the half-inhibitory concentration (IC50) is 0.13 µM.

Turning to `Cc1ccc(NC(=O)c2ccc(Cl)c(NC(=O)c3ccc([N+](=O)[O-])cc3)c2)cc1`, the IC50 was > 100 µM (inactive). Turning to `O=C(N[C@H](CO)c1ccccc1)c1ccc(-c2c[nH]c3nccc(C(F)(F)F)c23)s1`, the IC50 is 6.3 µM. As for `Cc1ccc(C)c(OC2CCN(C(=O)C(C)n3ccnc3)CC2)c1` (stereo not given), the IC50 is 0.1 µM. In the case of `CNc1c(C(N)=O)c(-c2ccc3scnc3c2)nn1CC(F)(F)F`, the IC50 was > 100 µM (inactive).

For the compound `Cc1cc(C)n(-c2nc(NC(C)C)nc(NC(C)(C)C)n2)n1`, the IC50 is > 100 µM (inactive).

With `NC(=O)c1ncccc1Nc1nc(NC2CCC(O)CC2)ncc1Br` (stereo not given), the IC50 is > 100 µM (inactive). In the case of `CCC(CC)C(=O)Nc1ccc(-c2nnc(-c3ccc(OC)cc3)o2)cc1`, the IC50 is 13 µM. As for `Cc1cc(C)c(C#N)c(SCC(=O)c2ccc3c(c2)OCO3)n1`, the figure is > 100 µM (inactive).

Turning to `COc1ccc(Nc2nc(-c3ccccn3)cc(N3CCCC(O)C3)n2)cc1` (stereo not given), the IC50 was 50 µM.

Consider `O=C(Cc1ccccc1)Nc1ccccc1C(=O)Nc1nccs1`, for which the IC50 is > 100 µM (inactive). As for `COc1ccc(C2CC(c3ccccc3Cl)=NN2C(=O)CNC(=O)C2CCCC2)cc1` (stereo not given), the figure is 63 µM. As for `COc1ccc(OC)c(S(=O)(=O)N(Cc2c(F)cccc2F)[C@@H]2CCN(C#N)C2)c1`, the figure is > 100 µM (inactive).

For `O=C(c1cccc(Nc2ncc(-c3ccc4c(c3)OCO4)cn2)c1)N1CCOCC1`, the 50% inhibitory concentration (IC50) is 20 µM. With `O=C(Nc1nc(-c2ccccn2)cs1)c1ccc(S(=O)(=O)N2CCCCC2)cc1` the figure was 6.3 µM; with `NC(=O)c1ccc(-c2cccc(OCCN3CCN(C4CCCCC4)CC3)c2)cc1`, 40 µM; with `Cc1nc2c(-c3ncn[nH]3)cc(NC(=O)Cc3ccccc3)cn2c1C`, 10 µM. With `Nc1nc(-c2ccccn2)nc(N)c1Cc1c(F)cccc1Cl`, the IC50 is > 100 µM (inactive). As for `c1cc(-c2ncc(-c3ccn[nH]3)s2)ccn1`, the figure is 0.04 µM; as for `COc1cnc2ccc(=O)n(CCN3CCC(NC/C=C/c4cc(F)ccc4F)CC3)c2c1`, 16 µM; as for `COc1ccc(OC)c(NC(=O)c2ccc([N+](=O)[O-])o2)c1`, 10 µM.

`O=C1CN(C(=O)c2cccc(Nc3ncc(-c4ccc5c(c4)OCO5)cn3)c2)CCN1`: the half-maximal inhibitory concentration (IC50) is 25 µM. With `O=C(Cc1ccccc1)Nc1[nH]nc2sc(C(=O)NC3CCCC3)cc12` the figure was 32 µM; with `COc1ccc(CN2C(=O)C(O)(CC(=O)c3ccncc3)c3cc(Br)ccc32)cc1OC` (stereo not given), 0.5 µM; with `O=C(Nc1nc(-c2ccccn2)cs1)N1C[C@H]2C[C@@]2(c2ccccc2)C1`, 40 µM. As for `O=c1ccc2ccc(F)c3c2n1C[C@H]3CN1CCN(CC(O)c2cc3c(cn2)OCS3)CC1` (stereo not given in full), the figure is > 100 µM (inactive). For the compound `COc1ccc(C(=O)Nc2ccc(NC(=O)CO)cc2)cc1`, the IC50 was > 100 µM (inactive). With `O=C(c1ccc(OCCCc2cnc[nH]2)cc1)C1CC1` the figure was 0.05 µM; with `CC(C)Nc1nc(Cl)nc2ccccc12`, > 100 µM (inactive). On to `COc1ccc(NS(=O)(=O)c2cc(-c3cc(C)[nH]n3)ccc2C)cc1OC`, for which the IC50 was 40 µM. As for `O=S(=O)(c1ccccc1C(F)(F)F)N1CCN(Cc2ccc(-n3ccnc3)cc2)CC1`, the figure is 0.1 µM; as for `COc1ccc2nc(N(Cc3cccnc3)C(=O)C3CCC3)sc2c1`, 0.063 µM; as for `O=C(Nc1ccc(C(=O)N2CCCC2c2ccc3c(c2)OCCCO3)cc1)c1ccco1` (stereo not given), 63 µM.

As for `O=C1OCc2ccc(Nc3nccc(-c4cnn5ncccc45)n3)cc21`, the IC50 is > 100 µM (inactive). Turning to `COc1ccc(C(=O)[C@H]2C[C@@H]2CN(Cc2ccccn2)Cc2ccccn2)cc1`, the IC50 is 40 µM. With `N#Cc1cnc(Nc2cccc(CCN3CCOCC3)c2)nc1Nc1ccccc1C(N)=O` the figure was 10 µM; with `CCOc1ccccc1C(=O)Nc1nnc(-c2ccc3c(c2)OCO3)s1`, > 100 µM (inactive).

On to `COc1ccccc1CNc1cc(C2CC2)nc(-c2nccn2C)n1`, for which the half-maximal inhibitory concentration (IC50) was 20 µM. As for `Nc1cc(-c2ccc3ncnc(N4CCOCC4)c3c2)cnc1N`, the figure is 79 µM; as for `N#Cc1cccc(CN2CCC(c3nc(-c4ccc(C(F)(F)F)nc4)no3)CC2)c1`, > 100 µM (inactive). With `Cc1c(C(C)NC(=O)Nc2cccc(Cl)c2)sc2ncnn12` (stereo not given) the figure was 0.13 µM; with `COc1ccc2ncc(Cl)c(CCN3CC[C@H](NCc4cc5c(cn4)OCS5)[C@@H](O)C3)c2n1`, 7.9 µM; with `CN(C)Cc1cccc(Nc2nccc(-c3ccc(NCCN)c(C#N)c3)n2)c1`, 6.3 µM. As to `COc1cccc(-c2c(C)nn(-c3nc(N)nc(-c4ccccn4)n3)c2N)c1`, the IC50 is > 100 µM (inactive). Consider `C=CCN(Cc1cccs1)C(=O)CSc1nnc(-c2ccc3c(c2)OCO3)o1`, for which the IC50 was 7.9 µM. For the compound `CC(C)(C)c1cc(NC2CC2)nc(-c2ccccn2)n1`, the IC50 is > 100 µM (inactive). As for `CNC(=O)C1Cc2ccccc2N1C(=O)COc1cccc(OC)c1` (stereo not given), the figure is 100 µM. With `O=C1c2cnc(N3CCCC3)nc2CN1c1ccc2c(c1)OCO2` the figure was > 100 µM (inactive); with `O=C(COc1ncnc2cc([N+](=O)[O-])ccc12)NC(=O)NC1CCCCC1`, > 100 µM (inactive).

In the case of `O=C(NCCc1nc(-c2ccc(F)c(F)c2)n[nH]1)C1CCCCC1`, the 50% inhibitory concentration (IC50) is 25 µM. As for `CC(C)C[C@H](NC(=O)c1csc(-c2cccs2)n1)C(=O)NC1(C#N)CC1`, the figure is > 100 µM (inactive). As for `CS(=O)(=O)c1ccc(Nc2nccc(-c3cnn4ncccc34)n2)cc1`, the figure is 16 µM.

For the compound `COc1cc(OC)cc(C(=O)N[C@@H](CC(C)C)C(=O)NC2(C#N)CC2)c1`, the IC50 was > 100 µM (inactive).

Turning to `Cc1nn(-c2nc3ccccc3[nH]2)c2c1C(c1ccc(O)cc1)CC(=O)N2` (stereo not given), the IC50 was 25 µM.

Regarding `CNc1cncc(C2CCCN2C(=O)Cc2ccc3ccccc3c2)n1` (stereo not given), the 50% inhibitory concentration (IC50) is 0.1 µM. With `CN(C)Cc1ccc(-c2ccc(S(=O)(=O)NCC3CCCO3)c(F)c2)cc1` (stereo not given) the figure was 40 µM.

Consider `CN(C(=O)Nc1ccc2c(c1)CCN(C1CCC1)CC2)c1ccc(C#N)cc1`, for which the IC50 is > 100 µM (inactive). With `CCCCNc1nccc(-c2c(-c3ccc(F)cc3)nn3c(N4CCOCC4)cccc23)n1` the figure was > 100 µM (inactive). As for `Cc1cccc(NS(=O)(=O)c2cnc3sc(C)cn3c2=O)c1`, the figure is > 100 µM (inactive); as for `Cc1cc(Nc2cc(C3CC3)[nH]n2)nc(N2CCCC2)n1`, > 100 µM (inactive).

For the compound `O=C(CC1(O)C(=O)N(Cc2ccccc2)c2ccc(Br)cc21)c1cccnc1` (stereo not given), the IC50 was 4 µM. Take `CN(Cc1nc2ccc(C(=O)NCC3CCCCC3)cc2[nH]1)C1CCCc2cccnc21` (stereo not given): the half-maximal inhibitory concentration (IC50) is 40 µM.

Turning to `Cc1ccc2sc(NC(=O)Cn3cnc([N+](=O)[O-])n3)nc2c1`, the IC50 was > 100 µM (inactive).
